One series relates to SNI mice. The series can be described thus: Spared nerve injury (SNI) model of neuropathic pain, paw withdrawal threshold (PWT) by Von Frey test. In kind it is in vivo, mouse. The conditions noted are these: SNI mice, viral (AAV9) knockdown followed by SNI, from day 60 onward, vs shCtrl (FIG. 4E). The procedure:
Chronic neuropathic pain was assessed using the spared nerve injury (SNI) model^13. Mice were anaesthetized with Ketamine/Xylazine (10 mg/kg body weight, intraperitoneal). The skin on the lateral surface of the thigh was incised and a section was made directly through the biceps femoris muscle in order to expose the sciatic nerve and its three terminal branches: the sural, common peroneal and tibial nerves. The SNI procedure comprised an axotomy and ligation of the tibial and common peroneal nerves leaving the sural nerve intact. The peroneal and the tibial nerves were tight-ligated and sectioned distal to the ligation. […] Following, mice were evaluated over a period of three months.
Von Frey tests of sensitivity to mechanical stimuli were conducted as previously described [Marvaldi et al. Dev Neurobiol 75, 217 (2015)]. Briefly, mice were placed in acrylic chambers suspended above a wire mesh grid and allowed to habituate to the testing apparatus for one hour prior to experiments. When the mouse was calm, the von Frey filaments were pressed against the plantar surface of the paw until the filament buckled and held for a maximum of 3 seconds. A positive response was noted if the paw was sharply withdrawn on application of the filament. Testing began with filament target force 13.7 milliNewtons and progressed according to an up-down method. 2 gram Von Frey filaments were used to assess sensitivity to noxious mechanical stimulation, scoring mice responses as follows: 0, no response; 1, visible signs of discomfort without leg withdrawal; 2, withdrawal of the leg.

A further series concerns importin α3. The series can be described thus: Western blot of importin α3 in HEK cells transduced with AAV9 constructs. Type of series: cell-based. The note with it: shα3 vs shCtrl, α3OE vs GFP (FIGS. 3A-C). The procedure: Transfection and Western blot analysis: Knockdown and overexpression constructs were tested in HEK or N2A cells transfected using JetPEI (Polyplus) according to manufacturer's instructions and lysed 48 hours later in RIPA buffer supplemented with protease inhibitors (Complete, Roche). For Western blot analysis, 5 μg of protein was separated on TGX Protean 5-15% gradient gels (Biorad) and transferred to nitrocellulose membranes. Membranes were blocked with 5% dried milk-TBST and probed overnight with an importin α3 antibody (1:5000) and GAPDH (MAB374, Millipore, 1:5000) as a loading control in 2% milk-TBST, followed by an anti-mouse HRP-conjugated antibody (#1706516 Biorad). Chemiluminescence was detected with Amersham Imager 600 and band intensities were quantified using the built-in software. AAV production and intrathecal injection: Purified adeno-associated virus (AAV) or the peripheral neuron specific PHP.S (AAV-PHP.S) [K. Y. Chan et al., Nat Neurosci 20, 1172-1179 (2017)] was produced in HEK 293T cells (ATCC®), with the AAVpro® Purification Kit (All Serotypes) from TaKaRa (#6666). For each construct ten 15 cm plates were transfected with 20 μg of DNA (AAV-plasmid containing the construct of interest and two AASV9 or AAV-PHP.S helper plasmids) using jetPEI® (Polyplus) in DMEM medium without serum or antibiotics. […]
(In general: Immunoblotting shows a protein as a band on a membrane.)

Data on one substance can be found in patent US20220133701A1, “METHODS OF TREATING PAIN” (Yeda Research and Development Co. Ltd., priority 2019, published 2022).

With “shα3: AAV9 expressing an importin α3 targeting shRNA (SEQ ID NO: 8), intrathecal injection (DNA GATCCGGCTTTGACAAACATTGCATGAAGCTTGATGCAATGTTTGTCAAAGCCTTTTTT)”, the “paw withdrawal threshold (PWT), Von Frey test” value was “recovery” in the series on SNI mice and “significant recovery of the paw withdrawal reflex” with SNI mice (listed as anti-importin α3 shRNA). Further, the “impα3 protein level (western blot, GAPDH normalized)” value in the series on importin α3 is on record as “downregulation”.
